The test system of test [1] is adult human liver cells. In words: Glucose challenge assay. In kind it is cell-based. To be noted: 0-25 mM, 2 hours. The protocol: Adult liver cells were treated with Ad-CMV-PDX-1 and growth factors for 5 days. The cells were plated in 6-well plates at 10^5 cells per well.
For time course analysis the cells were preincubated for 2 hours in Krebs-Ringer buffer (KRB) containing 0.1% BSA, followed by incubation for the indicated period in media containing 2 mM or 25 mM glucose. At each time point media samples were analyzed for insulin (Ultra Sensitive Human Insulin RIA kit—Linco Research) and C-peptide secretion (Human C-Peptide RIA kit—Linco Research).
Glucose dose response; Cells were preincubated for 2 hours with KRB containing 0.1% BSA, washed and challenged thereafter with increasing concentrations of D-Glucose or 2-deoxy-Glucose (0-25 mM) for 2 hours. At the end of the incubation period at 25 mM glucose, the cells were washed with KRB and incubated for additional 2 hours in 2 mM glucose containing media.

Test [2] relates to human liver cells. In words: Quantitative real-time RT-PCR gene expression in human liver cells. To be noted: without PDX-1. In kind it is cell-based. As to the method:
Liver cells were cultured in Dulbecco's minimal essential medium (1 gr/L glucose) with or without growth factors as indicated separately (EGF 20 ng/ml, Cytolab Ltd.; Nicotinamide 10 mM, Sigma), and were infected by recombinant adenoviruses (500 moi) for 5 days. The recombinant adenoviruses used in this study: Ad-RIP-GFP-CMV-PDX-1, Ad-CMV-PDX-1, Ad-CMV-hIns^40, Ad-CMV-GFP (Clontech, BD Biosciences).
Alternatively, quantitative real-time RT-PCR, was performed using ABI Prism 7000 sequence Detection system (Applied Biosystems).
Amplification conditions included initiation at 50° C. for 2 minutes, denaturation at 95° C. for 10 minutes, followed by 40 cycles, each cycle included denaturation at 95° C. for 15 seconds and annealing at 60° C. for 1 minute, using the TaqMan PCR Master Mix (Applied Biosystems). Relative quantitative analysis was according to ABI prism 7000 SDS software, using the 2^(−ΔCt) equation. The mRNA levels were corrected for human β-actin mRNA.
In general terms: In qPCR the cycle at which signal appears reflects the starting amount.

Turning to `O=CC[C@@H](O)[C@H](O)[C@H](O)CO` [2-DOG, 2-deoxy-glucose], the “C-peptide secretion in transdifferentiated liver cells” value in test [1] is on record as “did not trigger C-peptide secretion”.
Turning to `NC(=O)c1cccnc1` [nicotinamide], the “PDX-1 independent effect on pancreatic gene expression” value in test [2] is on record as “Neither nicotinamide nor EGF alone or their combination exhibited PDX-1 independent effect”.
On the same count and under the same terms, for “EGF: epidermal growth factor, soluble factor added to liver cell cultures (NSDSECPLSHDGYCLHDGVCMYIEALDKYACNCVVGYIGERCQYRDLKWWELR; UniProt P01133 971-1023, looked up)” the value was “Neither nicotinamide nor EGF alone or their combination exhibited PDX-1 independent effect”.

Source of the values: patent US8778899B2, “Methods of inducing regulated pancreatic hormone production in non-pancreatic islet tissues” (priority 1999, dated 2014).
